Data on five compounds can be found in article PMC11284788, “NN1213 – A Potent, Long-Acting, and Selective Analog of Human Amylin” (Journal of Medicinal Chemistry, 2024).

Numbered stars: 1 amine (or outer) side, 2 acyl side, 3 side chain; on linkers, the order of the positions; unused ones are H or OH. Bridge positions count the residues as written; N and C are the ends. Side chains are listed from the residue outwards. Peptide text beside a SMILES is read from it. * marks the point of attachment. C20 diacid = O=C(O)CCCCCCCCCCCCCCCCCCC(=O)*; γGlu = O=C(O)[C@H](CCC(=O)[*:2])N[*:1]

Series [1] can be described thus: ThT assay: fibril formation propensity and peptide recovery. The format is physicochemical. The settings on record: for recovery: residual dissolved peptide after 45 h of shaking, centrifugation and 0.22 μm filtration, HPLC, relative to amount before stress; for ThT, pH 4.0 lag-time: 10 mM glycylglycine pH 4.0, 1 μM ThT. The gist of the method:
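Peptides at 250 μM in 10 mM glycylglycine (pH 4.0) or HEPES (pH 7.5) with 1 μM ThT, shaken at 37 °C, 960 rpm, for 45 h; ThT fluorescence (ex 444/em 485 nm) read every 20 min. Lag time is the lowest of four replicates (>45 h if none); recovery is soluble peptide by HPLC after centrifugation/filtration, relative to pre-stress.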

Series [2] in a line: HMWP content by size-exclusion chromatography. The settings on record: covalent dimers and polymers prior to fibril formation testing, SEC, % of total absorbance area at 215 nm. It counts as physicochemical. In short, it runs like this: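 Amylin analogs analysed before fibril-formation testing by isocratic SEC in 0.5 M NaCl, 10 mM sodium dihydrogen phosphate, 5 mM ortho-phosphoric acid, 50% (v/v) 2-propanol. HMWP (covalent dimers/polymers) given as peak absorbance area percentage of total, assuming equal extinction coefficients for HMWP and main peak.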

Where [3] appears, read: 250 μM peptide, 37 °C, 960 rpm, 45 h, lowest of four replicas, average of experiments.

Turning to `CC(C)C[C@H](NC(=O)[C@H](CCCNC(=N)N)NC(=O)[C@H](CCC(N)=O)NC(=O)[C@@H](NC(=O)[C@H](C)NC(=O)[C@@H]1CSSC[C@H](NC(=O)[C@@H](N)CCCCNC(=O)CC[C@H](NC(=O)CC[C@H](NC(=O)CCCCCCCCCCCCCCCCCCC(=O)O)C(=O)O)C(=O)O)C(=O)N[C@@H](CC(N)=O)C(=O)N[C@@H]([C@@H](C)O)C(=O)N[C@@H](C)C(=O)N[C@@H]([C@@H](C)O)C(=O)N1)[C@@H](C)O)C(=O)N[C@@H](C)C(=O)N[C@@H](CC(=O)O)C(=O)N[C@@H](Cc1ccccc1)C(=O)N[C@@H](CC(C)C)C(=O)N[C@@H](CCCNC(=N)N)C(=O)N[C@@H](Cc1c[nH]cn1)C(=O)N[C@@H](CO)C(=O)N[C@@H](CO)C(=O)N[C@@H](CC(N)=O)C(=O)N1CCC[C@H]1C(=O)N[C@@H](Cc1ccccc1)C(=O)NCC(=O)N[C@@H](C)C(=O)N1CCC[C@H]1C(=O)N[C@@H](CC(C)C)C(=O)N[C@@H](CO)C(=O)N[C@@H](CO)C(=O)N[C@H](C(=O)N[C@@H](CC(N)=O)C(=O)N[C@H](C(=O)NCC(=O)N[C@@H](CO)C(=O)N[C@@H](CC(=O)O)C(=O)N[C@H](C(=O)N[C@@H](Cc1ccc(O)cc1)C(N)=O)[C@@H](C)O)C(C)C)[C@@H](C)O` [Peptide 7] (H-K([γGlu-γGlu-C20 diacid])CNTATCATQRLADFLRHSSNPFGAPLSSTNVGSDTY-NH2; disulfide 2-7), in series [1] (250 μM peptide, 10 mM HEPES pH 7.5, 1 μM ThT, 37 °C, 960 rpm, 45 h, lowest of four replicas, average of experiments), the “ThT, pH 7.5 lag-time” value is recorded as greater than 45 h. Moreover, the recovery in series [1] (pH 7.5) was found to be 100%. In series [2] (analogs 1–9 (pH 7.5 series)), the HMWP is given as 3%.
Turning to `CC[C@H](C)[C@H](NC(=O)[C@H](C)NC(=O)CNC(=O)[C@H](Cc1ccccc1)NC(=O)[C@H](CC(N)=O)NC(=O)[C@@H]1CCCN1C(=O)[C@H](CO)NC(=O)[C@H](CO)NC(=O)[C@H](Cc1c[nH]cn1)NC(=O)[C@H](CCCNC(=N)N)NC(=O)[C@H](CC(C)C)NC(=O)[C@H](Cc1ccccc1)NC(=O)[C@H](CC(N)=O)NC(=O)[C@H](C)NC(=O)[C@H](CC(C)C)NC(=O)[C@H](CCCNC(=N)N)NC(=O)[C@H](CCC(N)=O)NC(=O)[C@@H](NC(=O)[C@H](C)NC(=O)[C@@H]1CSSC[C@H](NC(=O)[C@H](CCCNC(=N)N)NC(=O)CNC(=O)CC[C@H](NC(=O)CCCCCCCCCCCCCCCCCCC(=O)O)C(=O)O)C(=O)N[C@@H](CC(N)=O)C(=O)N[C@@H]([C@@H](C)O)C(=O)N[C@@H](C)C(=O)N[C@@H]([C@@H](C)O)C(=O)N1)[C@@H](C)O)C(=O)N1CCC[C@H]1C(=O)N[C@@H](CO)C(=O)N[C@@H](CO)C(=O)N[C@H](C(=O)N[C@@H](CC(N)=O)C(=O)N[C@H](C(=O)NCC(=O)N[C@@H](CO)C(=O)N[C@@H](Cc1c[nH]cn1)C(=O)N[C@H](C(=O)N[C@@H](Cc1ccc(O)cc1)C(N)=O)[C@@H](C)O)C(C)C)[C@@H](C)O` [Peptide 19] ({C20 diacid-γGlu}-GRCNTATCATQRLANFLRHSSPNFGAIPSSTNVGSHTY-NH2; disulfide 3-8), in series [1] (setting [3]), the “ThT, pH 4.0 lag-time” value is reported as greater than 45 h. For the same compound, the recovery in series [1] (pH 4.0) is given as 84%. In series [2] (analogs 10–21 (pH 4.0 series)), the HMWP worked out at 0.3%.
In the case of `CC[C@H](C)[C@H](NC(=O)[C@H](C)NC(=O)CNC(=O)[C@H](Cc1ccccc1)NC(=O)[C@H](CC(N)=O)NC(=O)[C@@H]1CCCN1C(=O)[C@H](CO)NC(=O)[C@H](CO)NC(=O)[C@H](Cc1c[nH]cn1)NC(=O)[C@H](CCCNC(=N)N)NC(=O)[C@H](CC(C)C)NC(=O)[C@H](Cc1ccccc1)NC(=O)[C@H](CC(N)=O)NC(=O)[C@H](C)NC(=O)[C@H](CC(C)C)NC(=O)[C@H](CCCNC(=N)N)NC(=O)[C@H](CCC(N)=O)NC(=O)[C@@H](NC(=O)[C@H](C)NC(=O)[C@@H]1CSSC[C@H](NC(=O)[C@H](CCCCN)NC(=O)CC[C@H](NC(=O)CCCCCCCCCCCCCCCCCCC(=O)O)C(=O)O)C(=O)N[C@@H](CC(N)=O)C(=O)N[C@@H]([C@@H](C)O)C(=O)N[C@@H](C)C(=O)N[C@@H]([C@@H](C)O)C(=O)N1)[C@@H](C)O)C(=O)N1CCC[C@H]1C(=O)N[C@@H](CO)C(=O)N[C@@H](CO)C(=O)N[C@H](C(=O)N[C@@H](CC(N)=O)C(=O)N[C@H](C(=O)NCC(=O)N[C@@H](CO)C(=O)N[C@@H](CCCCN)C(=O)N[C@H](C(=O)N[C@@H](Cc1ccc(O)cc1)C(N)=O)[C@@H](C)O)C(C)C)[C@@H](C)O` [Peptide 13], the “ThT, pH 4.0 lag-time” value in series [1] (setting [3]) came to 35 h. Also, in series [1] (pH 4.0), the recovery was determined as 99%. In series [2] (analogs 10–21 (pH 4.0 series)), this compound returned an HMWP of 2.1%.
On to `CC[C@H](C)[C@H](NC(=O)[C@H](C)NC(=O)CNC(=O)[C@H](Cc1ccccc1)NC(=O)[C@H](CC(N)=O)NC(=O)[C@@H]1CCCN1C(=O)[C@H](CO)NC(=O)[C@H](CO)NC(=O)[C@H](Cc1c[nH]cn1)NC(=O)[C@H](CCCNC(=N)N)NC(=O)[C@H](CC(C)C)NC(=O)[C@H](Cc1ccccc1)NC(=O)[C@H](CC(N)=O)NC(=O)[C@H](C)NC(=O)[C@H](CC(C)C)NC(=O)[C@H](CCCNC(=N)N)NC(=O)[C@H](CCC(N)=O)NC(=O)[C@@H](NC(=O)[C@H](C)NC(=O)[C@@H]1CSSC[C@H](NC(=O)[C@H](CCCCN)NC(=O)COCCOCCNC(=O)COCCOCCNC(=O)CC[C@H](NC(=O)CCCCCCCCCCCCCCCCCCC(=O)O)C(=O)O)C(=O)N[C@@H](CC(N)=O)C(=O)N[C@@H]([C@@H](C)O)C(=O)N[C@@H](C)C(=O)N[C@@H]([C@@H](C)O)C(=O)N1)[C@@H](C)O)C(=O)N1CCC[C@H]1C(=O)N[C@@H](CO)C(=O)N[C@@H](CO)C(=O)N[C@H](C(=O)N[C@@H](CC(N)=O)C(=O)N[C@H](C(=O)NCC(=O)N[C@@H](CO)C(=O)N[C@@H](CC(N)=O)C(=O)N[C@H](C(=O)N[C@@H](Cc1ccc(O)cc1)C(N)=O)[C@@H](C)O)C(C)C)[C@@H](C)O` [Peptide 10], for which, in series [1] (setting [3]), the “ThT, pH 4.0 lag-time” value was determined as 34 h. The compound also returned a recovery in series [1] (pH 4.0) of 0%. In series [2] (analogs 10–21 (pH 4.0 series)), this compound displayed an HMWP of 2.7%.
Consider `CC[C@H](C)[C@H](NC(=O)[C@H](C)NC(=O)CNC(=O)[C@H](Cc1ccccc1)NC(=O)[C@H](CC(N)=O)NC(=O)[C@@H]1CCCN1C(=O)[C@H](CO)NC(=O)[C@H](CO)NC(=O)[C@H](Cc1c[nH]cn1)NC(=O)[C@H](CCCNC(=N)N)NC(=O)[C@H](CC(C)C)NC(=O)[C@H](Cc1ccccc1)NC(=O)[C@H](CC(N)=O)NC(=O)[C@H](C)NC(=O)[C@H](CC(C)C)NC(=O)[C@H](CCCNC(=N)N)NC(=O)[C@H](CCC(N)=O)NC(=O)[C@@H](NC(=O)[C@H](C)NC(=O)[C@@H]1CSSC[C@H](NC(=O)[C@H](CCCCN)NC(=O)CC[C@H](NC(=O)CCCCCCCCCCCCCCCCCCC(=O)O)C(=O)O)C(=O)N[C@@H](CC(N)=O)C(=O)N[C@@H]([C@@H](C)O)C(=O)N[C@@H](C)C(=O)N[C@@H]([C@@H](C)O)C(=O)N1)[C@@H](C)O)C(=O)N1CCC[C@H]1C(=O)N[C@@H](CO)C(=O)N[C@@H](CO)C(=O)N[C@H](C(=O)N[C@@H](CC(N)=O)C(=O)N[C@H](C(=O)NCC(=O)N[C@@H](Cc1c[nH]cn1)C(=O)N[C@@H](CC(N)=O)C(=O)N[C@H](C(=O)N[C@@H](Cc1ccc(O)cc1)C(N)=O)[C@@H](C)O)C(C)C)[C@@H](C)O` [Peptide 17], for which, in series [1] (setting [3]), the “ThT, pH 4.0 lag-time” value was 26 h. The compound also yielded a recovery in series [1] (pH 4.0) of 92%. This compound also came in with an HMWP in series [2] (analogs 10–21 (pH 4.0 series)) of 1.7%.
